From ChEMBL document CHEMBL4038262, “Design, synthesis and antibacterial activities of thiouracil derivatives containing acyl thiourea as SecA inhibitors” (Bioorg Med Chem Lett, 2017)
In brackets after ≈: the same amount, converted by molar mass.

Key:
Bacillus subtilis [1] = experiment: Antibacterial activity against Bacillus subtilis at 25 ug/ml after 24 hrs by plate colony counting method relative to control; format: functional
Staphylococcus aureus [2] = experiment: Antibacterial activity against Staphylococcus aureus at 25 ug/ml after 24 hrs by plate colony counting method relative to control; format: functional
[3] = test system: Bacillus amyloliquefaciens; experiment: Antibacterial activity against Bacillus amyloliquefaciens at 25 ug/ml after 24 hrs by plate colony counting method relative to control; format: functional
[4] = Inhibition of Escherichia coli BL21.19 SecA after 30 mins by malachite green dye-based assay
Escherichia coli [5] = experiment: Inhibition of Escherichia coli BL21.19 SecA at 40 ug/ml after 30 mins by malachite green dye-based assay relative to control
[6] = test system: Bacillus amyloliquefaciens; experiment: Antibacterial activity against Bacillus amyloliquefaciens after 24 hrs by plate colony counting method; format: functional
Bacillus subtilis [7] = experiment: Antibacterial activity against Bacillus subtilis after 24 hrs by plate colony counting method; format: functional
Staphylococcus aureus [8] = experiment: Antibacterial activity against Staphylococcus aureus after 24 hrs by plate colony counting method; format: functional
Escherichia coli [9] = experiment: Inhibition of Escherichia coli BL21.19 SecA at 20 ug/ml after 30 mins by malachite green dye-based assay relative to control

Compound N#Cc1c(-c2ccccc2Cl)nc(SCc2ccc(C(=O)NC(=S)Nc3ccc(Cl)cc3)cc2)[nH]c1=O has an inhibition at 25 µg/mL (Bacillus subtilis [1]) of 68%, an inhibition at 25 µg/mL (Staphylococcus aureus [2]) of 68% and an inhibition at 25 µg/mL [3] of 63%.
N#Cc1c(-c2c(Cl)cccc2Cl)nc(SCc2ccc(C(=O)NC(=S)Nc3ccccc3)cc2)[nH]c1=O showed an inhibition at 25 µg/mL (Bacillus subtilis [1]) of 55%, an inhibition at 25 µg/mL (Staphylococcus aureus [2]) of 71% and an inhibition at 25 µg/mL [3] of 71%.
In the case of N#Cc1c(-c2ccc(Cl)cc2)nc(SCc2ccc(C(=O)NC(=S)Nc3c(Cl)cccc3Cl)cc2)[nH]c1=O, the inhibition at 25 µg/mL (Bacillus subtilis [1]) was 80%, the IC50 [4] was 38.8 µg/mL (≈ 64.6 µM) and the inhibition (Escherichia coli [5]) was 50%. For the same compound, the MIC [6] was 25 µg/mL (≈ 41.6 µM), the MIC (Bacillus subtilis [7]) was 50 µg/mL (≈ 83.2 µM) and the inhibition at 25 µg/mL (Staphylococcus aureus [2]) was 81%. For the same compound, the inhibition at 25 µg/mL [3] was 81% and the MIC (Staphylococcus aureus [8]) was 50 µg/mL (≈ 83.2 µM).
In the case of N#Cc1c(-c2ccc(-c3ccccc3)cc2)nc(SCc2ccc(C(=O)NC(=S)Nc3c(Cl)cccc3Cl)cc2)[nH]c1=O, the inhibition at 25 µg/mL (Bacillus subtilis [1]) was 69%, the MIC [6] was 50 µg/mL (≈ 77.8 µM) and the MIC (Bacillus subtilis [7]) was 50 µg/mL (≈ 77.8 µM). It also gave an inhibition at 25 µg/mL (Staphylococcus aureus [2]) of 80%, an inhibition at 25 µg/mL [3] of 71% and an MIC (Staphylococcus aureus [8]) of 50 µg/mL (≈ 77.8 µM).
Compound N#Cc1c(-c2ccccc2)nc(SCc2ccc(C(=O)NC(=S)Nc3ccc(Cl)cc3)cc2)[nH]c1=O has an inhibition at 25 µg/mL (Bacillus subtilis [1]) of 71%, an IC50 [4] of 39.4 µg/mL (≈ 74.1 µM) and an inhibition (Escherichia coli [5]) of 50%. The inhibition at 25 µg/mL (Staphylococcus aureus [2]) was 64% and the inhibition at 25 µg/mL [3] was 79%.
In the case of N#Cc1c(-c2ccccc2)nc(SCc2ccc(C(=O)NC(=S)Nc3ccccc3)cc2)[nH]c1=O, the inhibition at 25 µg/mL (Bacillus subtilis [1]) was 63%, the inhibition at 25 µg/mL (Staphylococcus aureus [2]) was 67% and the inhibition at 25 µg/mL [3] was 70%.
In the case of CCn1cc(C(=O)O)c(=O)c2cc(F)c(N3CCNCC3)cc21 [NORFLOXACIN], the inhibition at 25 µg/mL (Bacillus subtilis [1]) was 89%, the MIC [6] was 25 µg/mL (≈ 78.3 µM) and the MIC (Bacillus subtilis [7]) was 25 µg/mL (≈ 78.3 µM). For the same compound, the inhibition at 25 µg/mL (Staphylococcus aureus [2]) was 78%, the inhibition at 25 µg/mL [3] was 84% and the MIC (Staphylococcus aureus [8]) was 25 µg/mL (≈ 78.3 µM).
For N#Cc1c(-c2ccccc2)nc(SCc2ccc(C(=O)NC(=S)Nc3c(Cl)cccc3Cl)cc2)[nH]c1=O, the inhibition at 25 µg/mL (Bacillus subtilis [1]) was 84%, the inhibition at 25 µg/mL (Staphylococcus aureus [2]) was 70% and the inhibition at 25 µg/mL [3] was 81%.
For N#Cc1c(-c2ccccc2Cl)nc(SCc2ccc(C(=O)NC(=S)Nc3ccccc3)cc2)[nH]c1=O, the inhibition (Escherichia coli [9]) was 50%, the inhibition at 25 µg/mL (Bacillus subtilis [1]) was 87% and the IC50 [4] was 17.9 µg/mL (≈ 33.6 µM). It also gave an MIC [6] of 25 µg/mL (≈ 47 µM), an MIC (Bacillus subtilis [7]) of 25 µg/mL (≈ 47 µM) and an inhibition at 25 µg/mL (Staphylococcus aureus [2]) of 80%. For the same compound, the inhibition at 25 µg/mL [3] was 67% and the MIC (Staphylococcus aureus [8]) was 50 µg/mL (≈ 94 µM).
Cc1ccccc1NC(=S)NC(=O)c1ccc(CSc2nc(-c3ccc(-c4ccccc4)cc3)c(C#N)c(=O)[nH]2)cc1 showed an inhibition at 25 µg/mL (Bacillus subtilis [1]) of 78%, an inhibition at 25 µg/mL (Staphylococcus aureus [2]) of 67% and an inhibition at 25 µg/mL [3] of 73%.
N#Cc1c(-c2c(Cl)cccc2Cl)nc(SCc2ccc(C(=O)NC(=S)Nc3c(Cl)cccc3Cl)cc2)[nH]c1=O showed an inhibition at 25 µg/mL (Bacillus subtilis [1]) of 73%, an MIC [6] of 50 µg/mL (≈ 78.7 µM) and an MIC (Bacillus subtilis [7]) of 50 µg/mL (≈ 78.7 µM). The inhibition at 25 µg/mL (Staphylococcus aureus [2]) was 79%, the inhibition at 25 µg/mL [3] was 53% and the MIC (Staphylococcus aureus [8]) was 50 µg/mL (≈ 78.7 µM).
For N#Cc1c(-c2c(Cl)cccc2Cl)nc(SCc2ccc(C(=O)NC(=S)Nc3ccc(Cl)cc3)cc2)[nH]c1=O, the inhibition at 25 µg/mL (Bacillus subtilis [1]) was 63%, the inhibition at 25 µg/mL (Staphylococcus aureus [2]) was 68% and the inhibition at 25 µg/mL [3] was 49%.
N#Cc1c(-c2ccc(Cl)cc2Cl)nc(SCc2ccc(C(=O)NC(=S)Nc3ccc(Cl)cc3)cc2)[nH]c1=O showed an inhibition at 25 µg/mL (Bacillus subtilis [1]) of 74%, an inhibition at 25 µg/mL (Staphylococcus aureus [2]) of 69% and an inhibition at 25 µg/mL [3] of 74%.
For N#Cc1c(-c2ccc(-c3ccccc3)cc2)nc(SCc2ccc(CSc3nc(-c4ccc(-c5ccccc5)cc4)c(C#N)c(=O)[nH]3)cc2)[nH]c1=O, the inhibition at 25 µg/mL (Bacillus subtilis [1]) was 44%, the IC50 [4] was 20.8 µg/mL (≈ 29.2 µM) and the MIC [6] was 12.5 µg/mL (≈ 17.5 µM). It also gave an MIC (Bacillus subtilis [7]) of 50 µg/mL (≈ 70.1 µM), an inhibition at 25 µg/mL (Staphylococcus aureus [2]) of 79% and an inhibition at 25 µg/mL [3] of 87%. For the same compound, the MIC (Staphylococcus aureus [8]) was 25 µg/mL (≈ 35.1 µM).
Compound Cc1ccccc1NC(=S)NC(=O)c1ccc(CSc2nc(-c3c(Cl)cccc3Cl)c(C#N)c(=O)[nH]2)cc1 has an inhibition at 25 µg/mL (Bacillus subtilis [1]) of 62%, an inhibition at 25 µg/mL (Staphylococcus aureus [2]) of 64% and an inhibition at 25 µg/mL [3] of 50%.
Cc1ccccc1NC(=S)NC(=O)c1ccc(CSc2nc(-c3ccccc3Cl)c(C#N)c(=O)[nH]2)cc1 gave an inhibition at 25 µg/mL (Bacillus subtilis [1]) of 82%, an inhibition at 25 µg/mL (Staphylococcus aureus [2]) of 71% and an inhibition at 25 µg/mL [3] of 78%.
N#Cc1c(-c2ccc(Cl)cc2Cl)nc(SCc2ccc(C(=O)NC(=S)Nc3c(Cl)cccc3Cl)cc2)[nH]c1=O gave an inhibition at 25 µg/mL (Bacillus subtilis [1]) of 69%, an MIC [6] of 50 µg/mL (≈ 78.7 µM) and an MIC (Bacillus subtilis [7]) of 50 µg/mL (≈ 78.7 µM). For the same compound, the inhibition at 25 µg/mL (Staphylococcus aureus [2]) was 68%, the inhibition at 25 µg/mL [3] was 72% and the MIC (Staphylococcus aureus [8]) was 50 µg/mL (≈ 78.7 µM).
For Cc1ccccc1NC(=S)NC(=O)c1ccc(CSc2nc(-c3ccc(Cl)cc3)c(C#N)c(=O)[nH]2)cc1, the inhibition at 25 µg/mL (Bacillus subtilis [1]) was 78%, the inhibition at 25 µg/mL (Staphylococcus aureus [2]) was 58% and the inhibition at 25 µg/mL [3] was 61%.
For N#Cc1c(-c2ccc(Cl)cc2)nc(SCc2ccc(C(=O)NC(=S)Nc3ccccc3)cc2)[nH]c1=O, the inhibition at 25 µg/mL (Bacillus subtilis [1]) was 63%, the inhibition at 25 µg/mL (Staphylococcus aureus [2]) was 67% and the inhibition at 25 µg/mL [3] was 70%.
Compound N#Cc1c(-c2ccc(-c3ccccc3)cc2)nc(SCc2ccc(C(=O)NC(=S)Nc3ccc(Cl)cc3)cc2)[nH]c1=O has an inhibition at 25 µg/mL (Bacillus subtilis [1]) of 56%, an inhibition at 25 µg/mL (Staphylococcus aureus [2]) of 76% and an inhibition at 25 µg/mL [3] of 75%.
Work on N#Cc1c(-c2ccccc2Cl)nc(SCc2ccc(C(=O)NC(=S)Nc3c(Cl)cccc3Cl)cc2)[nH]c1=O yielded an inhibition (Escherichia coli [9]) of 50%, an inhibition at 25 µg/mL (Bacillus subtilis [1]) of 92% and an IC50 [4] of 16 µg/mL (≈ 26.6 µM). The MIC [6] was 25 µg/mL (≈ 41.6 µM), the MIC (Bacillus subtilis [7]) was 50 µg/mL (≈ 83.2 µM) and the inhibition at 25 µg/mL (Staphylococcus aureus [2]) was 79%. The inhibition at 25 µg/mL [3] was 89% and the MIC (Staphylococcus aureus [8]) was 50 µg/mL (≈ 83.2 µM).
Compound Cc1ccccc1NC(=S)NC(=O)c1ccc(CSc2nc(-c3ccccc3)c(C#N)c(=O)[nH]2)cc1 has an inhibition at 25 µg/mL (Bacillus subtilis [1]) of 78%, an inhibition at 25 µg/mL (Staphylococcus aureus [2]) of 63% and an inhibition at 25 µg/mL [3] of 69%.
In the case of N#Cc1c(-c2ccc(Cl)cc2)nc(SCc2ccc(C(=O)NC(=S)Nc3ccc(Cl)cc3)cc2)[nH]c1=O, the inhibition at 25 µg/mL (Bacillus subtilis [1]) was 91%, the inhibition at 25 µg/mL (Staphylococcus aureus [2]) was 62% and the inhibition at 25 µg/mL [3] was 61%.
With N#Cc1c(-c2ccc(-c3ccccc3)cc2)nc(SCc2ccc(C(=O)NC(=S)Nc3ccccc3)cc2)[nH]c1=O the inhibition at 25 µg/mL (Bacillus subtilis [1]) was 72%, the MIC [6] was 50 µg/mL (≈ 87.2 µM) and the MIC (Bacillus subtilis [7]) was 50 µg/mL (≈ 87.2 µM). The inhibition at 25 µg/mL (Staphylococcus aureus [2]) was 83%, the inhibition at 25 µg/mL [3] was 62% and the MIC (Staphylococcus aureus [8]) was 50 µg/mL (≈ 87.2 µM).
For N#Cc1c(-c2ccc(Cl)cc2Cl)nc(SCc2ccc(C(=O)NC(=S)Nc3ccccc3)cc2)[nH]c1=O, the inhibition at 25 µg/mL (Bacillus subtilis [1]) was 66%, the inhibition at 25 µg/mL (Staphylococcus aureus [2]) was 79% and the inhibition at 25 µg/mL [3] was 56%.
In the case of Cc1ccccc1NC(=S)NC(=O)c1ccc(CSc2nc(-c3ccc(Cl)cc3Cl)c(C#N)c(=O)[nH]2)cc1, the inhibition at 25 µg/mL (Bacillus subtilis [1]) was 54%, the inhibition at 25 µg/mL (Staphylococcus aureus [2]) was 66% and the inhibition at 25 µg/mL [3] was 55%.
